According to PMC6652007, “Metabolic engineering of Clostridium thermocellum for n-butanol production from cellulose” (Biotechnology for Biofuels, 2019):
Read-outs that look alike come from different tables or passages of the source.

Assays:
Ts_Bad = tested on: T1, Ts_Bad; assay: NADH oxidation, A340; type: biochemical, Thermoanaerobacter sp. (strain X514); conditions: 0.3 mM NADH, 100 mM MOPS-KOH pH 7.5, 55 °C, anaerobic
T1 construct: gene bad; His-tagged (vector pD861-CH), codon-optimised, expressed in E. coli BL21(DE3), purified anaerobically
From the text: NADH oxidation, A340 on Ts_Bad

Tt_Hbd = target: T2, Tt_Hbd (Thermoanaerobacterium thermosaccharolyticum, UniProt P77851, D31A/I32R, form not given); assay: NAD(P)H oxidation, A340; type: biochemical; conditions: acetoacetyl-CoA as substrate, 100 mM MOPS-KOH pH 7.5, 55 °C
T2 construct: gene hbd; His-tagged (vector pD861-CH), codon-optimised, expressed in E. coli BL21(DE3)
T2 sequence (P77851 whole entry D31A/I32R, form open): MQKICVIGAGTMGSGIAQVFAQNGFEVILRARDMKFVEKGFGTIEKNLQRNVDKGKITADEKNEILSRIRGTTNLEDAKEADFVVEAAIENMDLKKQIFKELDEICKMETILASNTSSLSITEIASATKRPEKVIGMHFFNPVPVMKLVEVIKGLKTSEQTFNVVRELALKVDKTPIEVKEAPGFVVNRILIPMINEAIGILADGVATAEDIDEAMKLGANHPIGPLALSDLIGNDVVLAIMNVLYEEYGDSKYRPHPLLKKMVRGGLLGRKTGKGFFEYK
From the text: NAD(P)H oxidation, A340 on Tt_Hbd

| Km (Ts_Bad) | Structure (SMILES) | also measured |
| --- | --- | --- |
| 90 ± 10 µM | CC(=O)SCCNC(=O)CCNC(=O)[C@H](O)C(C)(C)COP(=O)(O)OP(=O)(O)OC[C@H]1O[C@@H](n2cnc3c(N)ncnc32)[C@H](O)[C@@H]1OP(=O)(O)O [Acetyl-CoA] | – |
| 200 ± 100 µM | CCCC(=O)SCCNC(=O)CCNC(=O)[C@H](O)C(C)(C)COP(=O)(O)OP(=O)(O)OC[C@H]1O[C@@H](n2cnc3c(N)ncnc32)[C@H](O)[C@@H]1OP(=O)(O)O [Butyryl-CoA] | – |
| – | NC(=O)C1=CN([C@@H]2O[C@H](COP(=O)(O)OP(=O)(O)OC[C@H]3O[C@@H](n4cnc5c(N)ncnc54)[C@H](O)[C@@H]3O)[C@@H](O)[C@H]2O)C=CC1 [NADH] | Km (Tt_Hbd; read-out: NADH / Km): 110 ± 20 µM |
| – | NC(=O)C1=CN([C@@H]2O[C@H](COP(=O)(O)OP(=O)(O)OC[C@H]3O[C@@H](n4cnc5c(N)ncnc54)[C@H](OP(=O)(O)O)[C@@H]3O)[C@@H](O)[C@H]2O)C=CC1 [NADPH] | Km (Tt_Hbd; read-out: NADPH / Km): 30 ± 10 µM |
